Our source for the EC50 and IC50 values is US9284318B2, “Protein kinase inhibitors” (Pharmascience, Inc., priority 2011, dated 2016).

Test [1] has as its system MV4-11 cells. Nature of the test: Human MV4-11 biphenotypic B myelomonocytic leukemia cell survival assay. The test is classed as cell-based. The following applies: cell survival at 72h, Cell Titer-Glo. On the procedure:
Human MV4-11 Biphenotypic B Myelomonocytic Leukemia Cell Survival Assay
Biphenotypic B myelomonocytic leukemia MV4-11 cells (ATCC CRL-9591) were cultured in suspension at 37° C., 5% CO2 in complete medium (RPMI supplemented with 10% FBS, 1% penicillin/streptomycin). One day prior to treatment, cells per seeded in 96-well plates at 8000 cells/well in complete medium. The following day, triplicate wells were treated with compound curves of 100, 1000 or 10,000 nM starting concentration according to compound potency. Cell survival was measured 72h later by Cell Titer-Glo Luminescent Assay (Promega). Luminescence was read using a Tecan Infinite F200 microplate reader. EC50 values (50% survival in the presence of compound as compared to vehicle treated controls) were calculated from non-linear fit dose response compound curves using CambridgeSoft BioAssay software (Perkin Elmer).
(ATP-based viability assays read luminescence as a measure of living cells.)

The target in test [2] is T1, recombinant human colony stimulating factor 1 receptor (FMS) (Homo sapiens, UniProt P07333).
T1 construct: containing the catalytic domain (amino acids 538-910); His tag; purchased Invitrogen; host or cells: insect cells
T1 sequence (P07333 538-910): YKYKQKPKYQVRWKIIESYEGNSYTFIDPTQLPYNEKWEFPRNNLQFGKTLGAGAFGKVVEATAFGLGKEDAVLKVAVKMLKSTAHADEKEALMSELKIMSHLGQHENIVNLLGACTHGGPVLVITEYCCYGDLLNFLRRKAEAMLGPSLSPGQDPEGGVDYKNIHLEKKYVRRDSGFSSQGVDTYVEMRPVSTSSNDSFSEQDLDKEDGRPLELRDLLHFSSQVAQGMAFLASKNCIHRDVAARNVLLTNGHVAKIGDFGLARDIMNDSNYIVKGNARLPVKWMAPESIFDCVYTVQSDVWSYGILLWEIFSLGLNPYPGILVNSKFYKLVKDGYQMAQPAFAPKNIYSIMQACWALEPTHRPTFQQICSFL
Kind of test: Biochemical cFMS (CSF1R) fluorescence polarization kinase assay. The following applies: 10 μM ATP, 100 μM substrate, 60 minutes. Here is the method: Biochemical cFMS (CSF1R) Assay:
Fluorescence polarization-based kinase biochemical assays were performed in 384 well-plate format using histidine tagged recombinant human colony stimulating factor 1 receptor (FMS) supplied from Invitrogen™ (containing the catalytic domain (amino acids 538-910), expressed in insect cells and activated in vitro via auto phosphorylation) and a modified protocol of the KinEASE™ FP Fluorescein Green Assay supplied from Millipore™.
Kinase reactions were performed in 384 well plate format at room temperature for 60 minutes in presence of 100 μM substrate, 10 μM ATP and variable test article concentrations. The reaction was stopped with EDTA/KinEASE™ detection reagents and the polarization measured on a Tecan 500 instrument. From the dose-response curve obtained, the IC50 was estimated using Graph pad Prisms® using a non linear fit curve.
For orientation: Fluorescence polarisation rises when a labelled molecule tumbles more slowly, as on binding a larger partner.

In test [3] the test system is M-NFS-60 M-CSF-dependent myeloid leukemia cells. Nature of the test: Murine M-CSF-dependent M-NFS-60 cell survival assay. The test is classed as cell-based. The conditions noted are these: Mus musculus; cell survival at 72 hours, 20 ng/ml M-CSF, Cell Titer-Glo. On the procedure:
Cellular Assays: Murine M-CSF-Dependent M-NFS-60 Cell Survival Assay
Murine M-NFS-60 M-CSF-dependent myeloid leukemia cells were purchased from ATCC (CRL-1838). Cells were routinely cultured at 37° C., 5% CO2 in complete medium (RPMI supplemented with 10% FBS, 1% penicillin/streptomycin, 50 uM beta mercaptoethanol) containing 30 ng/ml recombinant murine M-CSF (Peprotech 315-02). For survival assays, cells were transferred to depleted medium (complete medium depleted of M-CSF) for 24 hours prior to initiation of each experiment. M-CSF-starved cells were harvested and re-suspended in complete medium containing 20 ng/ml M-CSF. Cells were seeded at 25,000 cells/well in 96-well plates and incubated for 1 hour at 37° C., 5% CO2. Cells were treated with 1 uM or 10 uM compound curves in triplicate and cell survival was measured 72 hours later by Cell Titer-Glo Luminescent Assay (Promega). Luminescence was read using a Tecan Infinite F200 microplate reader. EC50 values (50% survival in the presence of compound as compared to vehicle treated controls) were calculated from non-linear fit dose response compound curves using GraphPad Prism Software.

Some results are limits rather than exact numbers.

`Nc1ncnc2c3c(n(CCCCc4ccccc4)c12)CCC3` [Compound 51]: the EC50 (usually the midpoint of the concentration-response curve) in test [1] is over 1000 nM.

As to `N#Cc1ccc(NC(=O)Nc2ccc(-n3c4c(c5ncnc(N)c53)CCC4)cc2)cc1` [Compound 65], the IC50 (commonly the concentration at which inhibition is half-maximal) in test [2] is over 1000 nM. Further, the figures for the EC50 in test [3] and in test [1] were 100 to 1000 nM and under 100 nM, respectively.

Turning to `Nc1ncnc2c3c(n(-c4ccc(NC(=O)Nc5ccc(OC(F)F)cc5)cc4)c12)CCC3` [Compound 27], in test [2], the IC50 was under 100 nM. Besides, the EC50 in test [3] and in test [1] was under 100 nM in each case.

In test [1], `Nc1ncnc2c3c(n(-c4ccc5c(c4)OCO5)c12)CCC3` [Compound 5] yielded an EC50 of over 1000 nM.

`Nc1ncnc2c3c(n(-c4ccc(NC(=O)Nc5ccccc5F)cc4)c12)CCC3` [Compound 39]: the IC50 in test [2] was 100 to 1000 nM. For the same molecule, the EC50 was under 100 nM in test [3] and 100 to 1000 nM in test [1].

In the case of `CC(C)(C)c1cc(NC(=O)Nc2ccc(-n3c4c(c5ncnc(N)c53)CCC4)cc2)no1` [Compound 74], in test [2], the half-maximal inhibitory concentration (IC50) is under 100 nM. Besides, the EC50 in test [3] was under 100 nM.

Turning to `Nc1ncnc2c3c(n(-c4ccc(NC(=O)Nc5ccc(F)cc5)cc4)c12)COC3` [Compound 33], the IC50 in test [2] fell in the range of 100 to 1000 nM. In addition, the EC50 in test [3] and in test [1] was 100 to 1000 nM throughout.

Turning to `Nc1ncnc2c3c(n(-c4ccc(NC(=O)Nc5cccc(Cl)c5)cc4)c12)CCC3` [Compound 20], in test [2], the IC50 is 100 to 1000 nM. In addition, the figures for the EC50 in test [3] and in test [1] were under 100 nM and 100 to 1000 nM, respectively.

For `Nc1ncnc2c3c(n(-c4ccc(NC(=O)Nc5cccc(F)c5)cc4)c12)CCC3` [Compound 19], in test [2], the IC50 was under 100 nM. Moreover, the EC50 in test [3] is under 100 nM; in test [1] it was 100 to 1000 nM.

Regarding `Nc1ncnc2c3c(n(-c4ccc(NC(=O)Nc5ccccc5C(F)(F)F)cc4)c12)CCC3` [Compound 23], the 50% inhibitory concentration (IC50) in test [2] lay within 100 to 1000 nM. Besides, the EC50 is 100 to 1000 nM in test [3] and over 1000 nM in test [1].

For the molecule `COc1cc(NC(=O)Nc2ccc(-n3c4c(c5ncnc(N)c53)CCC4)cc2)cc(C(F)(F)F)c1` [Compound 70], in test [1], the concentration for a half-maximal effect (EC50) is under 100 nM.

As to `Nc1ncnc2c3c(n(-c4ccc(NC(=O)Nc5cc(C(F)(F)F)ccc5F)cc4)c12)COC3` [Compound 67], the IC50 in test [2] fell in the range of 100 to 1000 nM. Moreover, the EC50 is 100 to 1000 nM in test [3] and under 100 nM in test [1].

For `Nc1ncnc2c3c(n(-c4ccc(NC(=O)Nc5cc(C(F)(F)F)ccc5F)c(F)c4)c12)CCC3` [Compound 62], the IC50 in test [2] lay in the range of 100 to 1000 nM. Besides, the values for the EC50 in test [3] and in test [1] were 100 to 1000 nM and under 100 nM, respectively.

`COc1ccc(C(F)(F)F)cc1NC(=O)Nc1ccc(-n2c3c(c4ncnc(N)c42)CCC3)cc1` [Compound 58]: the IC50 in test [2] lay within 100 to 1000 nM. Further, the EC50 in test [3] was 100 to 1000 nM; in test [1], under 100 nM.

Consider `Nc1ncnc2c3c(n(-c4ccc(NC(=O)Nc5cccc(C(F)(F)F)c5)cc4)c12)COC3` [Compound 48], for which the IC50 in test [2] is under 100 nM. Besides, the values for the EC50 in test [3] and in test [1] were 100 to 1000 nM and under 100 nM, respectively.

As for `Nc1ncnc2c3c(n(-c4ccc(NC(=O)Nc5ccccc5OC(F)F)cc4)c12)CCC3` [Compound 68], the IC50 in test [2] was 100 to 1000 nM. The values for the EC50 in test [3] and in test [1] were 100 to 1000 nM and under 100 nM, respectively.

For `C[C@@H](NC(=O)Nc1ccc(-n2c3c(c4ncnc(N)c42)CCC3)cc1)c1ccccc1` [Compound 45], the IC50 in test [2] was 100 to 1000 nM. The EC50 in test [3] is 100 to 1000 nM; in test [1], under 100 nM.

For the molecule `COc1ccccc1NC(=O)Nc1ccc(-n2c3c(c4ncnc(N)c42)CCC3)cc1` [Compound 16], in test [2], the IC50 was in the range of 100 to 1000 nM. The EC50 in test [3] and in test [1] was under 100 nM each time.

For `C[C@@H](NC(=O)Nc1ccc(-n2c3c(c4ncnc(N)c42)CCC3)cc1)c1ccc(F)cc1` [Compound 73], the IC50 in test [2] fell in the range of 100 to 1000 nM. Besides, the figures for the EC50 in test [3] and in test [1] were 100 to 1000 nM and under 100 nM, respectively.

As for `Nc1ncnc2c3c(n(-c4ccc(NC(=O)Nc5ccc(Cl)cc5)cc4)c12)CCC3` [Compound 22], the EC50 is under 100 nM in test [3] and 100 to 1000 nM in test [1].

For `Nc1ccc(-n2c3c(c4ncnc(N)c42)CCCC3)cc1` [Compound 18], in test [1], the EC50 lay in the range of 100 to 1000 nM.

Turning to `COc1cccc(NC(=O)Nc2ccc(-n3c4c(c5ncnc(N)c53)CCC4)cc2)c1` [Compound 11], in test [2], the IC50 was under 100 nM. In addition, the EC50 in test [3] and in test [1] was under 100 nM each time.

For `Nc1ncnc2c3c(n(-c4ccc(NC(=O)Nc5ccccc5Cl)cc4)c12)CCC3` [Compound 36], the IC50 in test [2] was 100 to 1000 nM. Besides, the EC50 was 100 to 1000 nM in test [3] and over 1000 nM in test [1].

In test [1], `COc1ccc(-n2c3c(c4ncnc(N)c42)CCC3)cc1OC` [Compound 34] returned an EC50 of over 1000 nM.

With `COc1ccc(-n2c3c(c4ncnc(N)c42)CCC3)cc1` [Compound 7], the EC50 in test [1] is over 1000 nM.

Consider `Nc1ncnc2c3c(n(-c4ccc(NS(=O)(=O)c5ccccc5)cc4)c12)CCC3` [Compound 3], for which the IC50 in test [2] was over 1000 nM. The EC50 in test [3] and in test [1] was over 1000 nM each time.

In the case of `Nc1ncnc2c3c(n(-c4ccc(Nc5ccccc5)cc4)c12)CCC3` [Compound 12], in test [2], the IC50 is over 1000 nM. The EC50 in test [3] and in test [1] was over 1000 nM throughout.

On to `COc1ccc(NC(=O)Nc2ccc(-n3c4c(c5ncnc(N)c53)CCC4)cc2)cc1F` [Compound 56], for which, in test [2], the IC50 was under 100 nM. Besides, the EC50 in test [3] and in test [1] was under 100 nM throughout.

In turn, `CS(=O)(=O)Nc1ccc(-n2c3c(c4ncnc(N)c42)CCC3)cc1` [Compound 6] displayed an EC50 in test [1] of over 1000 nM.

In the case of `Nc1ncnc2c3c(n(Cc4ccccc4)c12)CCC3` [Compound 15], in test [1], the EC50 is over 1000 nM.

For the molecule `Nc1ncnc2c3c(n(-c4ccc(NC(=O)NCc5ccc(F)cc5)cc4)c12)CCC3` [Compound 52], the EC50 in test [3] is 100 to 1000 nM; in test [1], under 100 nM.

Turning to `Nc1ncnc2c3c(n(-c4ccccc4)c12)CCC3` [Compound 49], the EC50 in test [1] lay within 100 to 1000 nM.

In the case of `COc1ccc(NC(=O)Nc2ccc(-n3c4c(c5ncnc(N)c53)CCC4)cc2)cc1` [Compound 13], the EC50 in test [3] and in test [1] was under 100 nM throughout.

As for `Nc1ncnc2c3c(n(-c4ccc(NC(=O)NCCc5ccc(F)cc5)cc4)c12)CCC3` [Compound 42], the EC50 in test [3] is 100 to 1000 nM; in test [1], under 100 nM.

In test [1], `Nc1ncnc2c3c(n(CCCc4ccccc4)c12)CCC3` [Compound 40] gave an EC50 of 100 to 1000 nM.

As to `Nc1ncnc2c3c(n(-c4ccc(O)cc4)c12)CCC3` [Compound 26], the EC50 in test [1] is over 1000 nM.

As to `C[C@H](NC(=O)Nc1ccc(-n2c3c(c4ncnc(N)c42)CCC3)cc1)c1ccccc1` [Compound 38], the EC50 in test [3] is 100 to 1000 nM; in test [1], over 1000 nM.

Regarding `Nc1ncnc2c3c(n(CCc4ccccc4)c12)CCC3` [Compound 29], the EC50 in test [1] is over 1000 nM.

Molecule `CC(=O)Nc1ccc(-n2c3c(c4ncnc(N)c42)CCC3)cc1` [Compound 37] gave an EC50 in test [1] of over 1000 nM.

For `Nc1ccc(-n2c3c(c4ncnc(N)c42)CCC3)cc1` [Compound 2], the EC50 in test [1] is under 100 nM.

Molecule `Nc1ccc(-n2c3c(c4ncnc(N)c42)COC3)cc1` [Compound 32] showed an EC50 in test [1] of 100 to 1000 nM.

Molecule `Nc1ncnc2c3c(n(-c4ccc(NC(=O)OCc5ccccc5)cc4)c12)COC3` [Compound 31] gave an EC50 in test [1] of 100 to 1000 nM.
